Laboratory results taken from US20230147249A1, “METHODS OF APPLYING A FUMIGANT TO REDUCE FUSARIUM CONTAMINATION” (Taminco BV, priority 2020, published 2023).

How the values were obtained:
[1] = tested on: F. oxysporum f. sp. cubense; experiment: Panama disease analysis of soil samples after metam sodium soil injection; format: in vivo, Fusarium oxysporum f. sp. cubense Tropical Race 4; conditions: any of the treated groups (750-3000 L/ha); any day post application
Protocol: (§1) Metam Sodium Application. Metam sodium 510 SL (equivalent to 42% w/w) was applied to soil at the following doses: 0 liters per hectare (L/ha), 750 L/ha, 1500 L/ha, 2250 L/ha, 3000 L/ha.
(§2) Prior to injection, soil was prepared using a rototiller to break the soil structure from 0 cm to 80 cm deep, allowing for the smooth and even injection application by an injection machine. The soil was then leveled and made uniform, and the metam sodium was applied at two depths: 30 cm and 60 cm, using injection methods. The temperature was at a minimum of 10 QC and soil humidity was between 50 and 60% holding capacity, allowing the applied product to transform from metam sodium (liquid) to MITC (gas).
(§3) The application was made using an injection machine wherein the machine lowered shanks and began moving forward such that the shanks lowered to a depth of 60 cm and injectors applied the metam sodium into the soil. When the injection at 60 cm was complete, the process was repeated for the entire field at 30 cm. The treated soil in the field was then sealed using a packer roller (which was part of the injection machinery, located at the back end of the machine), after each application.
Soil Analysis. Soil samples were obtained at 20, 40, and 60 cm before application and every 24 hours beginning 48 hours after application, for seven days.
Plant Pathology Analysis. […]

[2] = tested on: Foc TR4 chlamydospores; experiment: Efficacy of metam sodium on Foc TR4 chlamydospores in vitro (colony growth on PDA plates); format: cell-based, Fusarium oxysporum f. sp. cubense Tropical Race 4
Protocol: Foc TR4 chlamydospores were extracted from infested soil and incubated with a dilution series of metam sodium for 5 min and 60 min at room temperature. Thereafter, the samples were diluted 10× to get reduction of the treatment and sufficient dilution of chlamydospores to avoid lack of resolution when grown on plate. Aliquots of 100 μl were plated on PDA plates in duplicate and incubated for 3 days at 25° C. Plates were photographed and scored.

[3] = tested on: Cavendish banana plants; experiment: Field trial: growth and development of banana plants after metam sodium soil injection at 30 cm and 60 cm; format: in vivo, Cavendish banana (Musa)
Protocol: The analyses described in this example were carried out in the Philippines in a field in which Musa trees (specifically bananas) were to be planted, in the spring (beginning in March). Final determinations were carried out in September of the same year.
as §1, §2, §3
Plant Selection and Transplantation. Cavendish banana plants were used for this investigation. In order to avoid plants already contaminated by other soil, all plants were produced in vitro using art-recognized methods. Plants were transplanted into the field 14 days after the final soil reading was taken (21 days after treatment).
Data Gathering. Data were gathered at monthly intervals beginning three months after banana plants were transplanted. A total of three data collection sessions were conducted. Data including the number of leaves, plant height, and girth size were collected.

[4] = 750 L/ha, six months after treatment
[5] = 1500 L/ha, six months after treatment
[6] = 2250 L/ha, six months after treatment
[7] = 3000 L/ha, six months after treatment

In the case of `CNC(=S)[S-].[Na+]` [metam sodium, sodium N-methyldithiocarbamate], the “Foc TR4 detection in soil” value [1] is reported as “No Foc TR4 was detected”, the “effect of prolonged incubation on number of surviving chlamydospores (growing colonies)” value ([2]; 100× dilution, 60 min versus 5 min) is reported as “more effective in reducing the number of surviving chlamydospores” and the “efficacy on Foc TR4 colony growth” value ([2]; dilution of 10×, incubation time 5 minutes) is reported as “effective”. For the same compound, the “efficacy on Foc TR4 colony growth” value ([2]; dilution of 100×, 5 and 60 minutes) was “less effective”, the “reduction in viability of Foc TR4 chlamydospores (colony growth)” value ([2]; first test, dilutions from 1000 up to 10×10^6-fold, 60 min) was “No significant reduction in viability” and the “efficacy against Foc TR4 chlamydospores” value ([2]; in vitro conditions, dependent on high concentrations) was “effective against Foc TR4 chlamydospores”. The “efficacy on surviving chlamydospores” value ([2]; second test, 10× and 100× dilutions) was “(partially) effective”, the “number of chlamydospores that survived” value ([2]; second test, dilutions of 1000× and more) was “did not affect the number of chlamydospores that survived” and the “effect on average girth size of banana plant” value ([3]; 750 L/ha) was ~1 cm. For the same compound, the “increase in average height of banana plant” value ([3]; 750 L/ha) was ~5 cm, the “effect on plants reaching bagging stage” value [3, 4] was “did not have a meaningful effect” and the “percent of plants at either shooting or bagging stage” value [3, 4] was 11%. For the same compound, the “percent of plants at shooting stage” value [3, 4] was 9%, the “increase in average girth size of banana plant” value ([3]; 1500-3000 L/ha) was 4-6 cm and the “increase in average height of banana plant” value ([3]; 1500-3000 L/ha) was 20-23 cm. The “percent of plants at either shooting or bagging stage” value [3, 5] was 28%, the “percent of plants at shooting stage” value [3, 5] was 10% and the “percent of plants at bagging stage” value ([3]; 1500 to 3000 L/ha, six months after treatment) was 11-19%. For the same compound, the “percent of plants at either shooting or bagging stage” value [3, 6] was 27%, the “percent of plants at shooting stage” value [3, 6] was 17% and the “percent of plants at either shooting or bagging stage” value [3, 7] was 35%. For the same compound, the “percent of plants at shooting stage” value [3, 7] was 22% and the “increase of average number of leaves per banana plant” value ([3]; regardless of dose applied (750-3000 L/ha), versus 0 L/ha) was “roughly 1.5 fold”.
